Measured values: patent US20080112992A1, “METHOD FOR CONTROLLING THE APPLICATION OF AN INSECTICIDE AND COMPOSITION THEREOF” (FLIT.S.A., priority 2001, published 2008)

Assay: Colour change time after spraying on surfaces and drying in air
Format: physicochemical
Method: This composition of a pH of about 7.0 and of a yellow colour was applied by spraying to various kinds of surfaces, such as wood, painted wood, painted walls, ceramic tile, plastic (polyethylene), glass and stainless steel.
After about 40 minutes of exposure to air (including carbon dioxide), the composition was dried and the yellow colour disappeared.
Other levels of 4-nitrophenol were tested, and it was shown that with 0.05 wt % the yellow colour was somewhat faint but with a shorter colour changing time (about 25 min.), whereas with highest content, i.e. 0.5 resp. 1.0%, the colour change takes more time, i.e. 70 resp. 120 min.
Phenolphthalein was also tested at levels of 0.01 to 1.0 wt %, which all gave acceptable results and a colour change of about 40 min. The pH of the composition was initially adjusted to 9.4 using triethanolamine.

Row | Structure (SMILES) | colour changing time (0.05 wt % 4-nitrophenol in the composition, yellow colour somewhat faint) | colour change time (0.5 % 4-nitrophenol in the composition) [min] | colour change time (1.0 % 4-nitrophenol in the composition) [min] | colour change time (phenolphthalein at 0.01 to 1.0 wt %, pH initially adjusted to 9.4 using triethanolamine)
1 | O=[N+]([O-])c1ccc(O)cc1 [4-nitrophenol] | about 25 min. | 70 | 120 | 
2 | O=C1OC(c2ccc(O)cc2)(c2ccc(O)cc2)c2ccccc21 [Phenolphthalein, phenolphthalein] |  |  |  | about 40 min.
